Literature values in patent publication US5859021A, “Antiviral combinations” (priority 1991, dated 1999).

Assays:
[1] = versus (+) enantiomer
patients with AIDS = conditions: for toxicity in patients: AIDS patients, AZT: long-term therapy
[2] = tested on: normal human bone marrow progenitor cells; conditions: combination with high-dose AZT, antiviral activity not affected

In the case of `Nc1ccn([C@@H]2CS[C@H](CO)O2)c(=O)n1` (racemic) [compound of formula (I), (±)-(cis)-4-Amino-1-(2-hydroxymethyl-1,3-oxathiolan-5-yl)-(1H)-pyrimidin-2-one], the “antiviral activity against HIV” value (HIV) is given as “having antiviral activity”.
For `Nc1ccn([C@@H]2CS[C@H](CO)O2)c(=O)n1` [3TC], the “cytotoxicity compared with the (+) enantiomer” value [1] is listed as “considerably lower cytotoxicity than the (+) enantiomer”.
In the case of `Cc1cn([C@H]2C[C@H](N=[N+]=[N-])[C@@H](CO)O2)c(=O)[nH]c1=O` [AZT, 3'-azido-3'-deoxythymidine], the toxicity in patients (patients with AIDS) is listed as “bone-marrow toxicity”, the “appearance of resistant HIV-1 variants” value (patients with AIDS; long-term AZT therapy) is listed as “appearance of AZT-resistant variants of HIV-1” and the morbidity and mortality (patients with AIDS; patients with AIDS) is listed as “reduces morbidity and mortality”. For the same compound, the “inhibition of HIV replication in vitro” value (HIV; in vitro) was “inhibit HIV replication in vitro” and the “antiviral activity in combination” value (HIV; in vitro, with recombinant soluble CD4, castanospermine and recombinant interferon alpha) was “synergistic antiviral activity”.
In the case of `Nc1ccn([C@H]2CC[C@@H](CO)O2)c(=O)n1` [ddC, 2',3'-dideoxycytidine], the toxicity in patients (patients with AIDS) is listed as “peripheral neurophathy”, the “antiviral activity of AZT in combination with ddC” value (HIV) is listed as “without affecting its antiviral activity” and the “inhibition of HIV replication in vitro” value (HIV; in vitro) is listed as “inhibit HIV replication in vitro”. The “effect on bone marrow cytotoxicity of high-dose AZT” value [2] was “eliminates the bone marrow cytotoxicity of high-dose AZT”.
For `OC[C@@H]1CC[C@H](n2cnc3c(O)ncnc32)O1` [ddI, 2',3'-dideoxyinosine], the toxicity in patients (patients with AIDS) is listed as “pancreatitis and peripheral neuropathy” and the “inhibition of HIV replication in vitro” value (HIV; in vitro) is listed as “inhibit HIV replication in vitro”.
